Source: ChEMBL document CHEMBL1138408, “Molecular dynamics simulation of the P2Y14 receptor. Ligand docking and identification of a putative binding site of the distal hexose moiety” (Bioorg Med Chem Lett, 2007)

Target: T1, P2Y purinoceptor 14 (Homo sapiens, UniProt Q15391)
T1 sequence (Q15391 whole entry): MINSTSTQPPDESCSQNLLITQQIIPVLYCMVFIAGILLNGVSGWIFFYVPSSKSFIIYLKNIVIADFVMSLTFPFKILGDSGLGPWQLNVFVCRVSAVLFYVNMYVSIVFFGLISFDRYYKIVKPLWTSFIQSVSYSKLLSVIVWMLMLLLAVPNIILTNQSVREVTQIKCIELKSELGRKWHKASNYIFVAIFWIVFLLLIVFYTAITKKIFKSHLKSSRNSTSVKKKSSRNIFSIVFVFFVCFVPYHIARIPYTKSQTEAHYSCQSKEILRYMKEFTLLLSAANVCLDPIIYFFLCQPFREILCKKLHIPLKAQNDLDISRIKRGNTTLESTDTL
Test: Agonist activity at human P2Y14 receptor expressed in COS7 cells assessed as stimulation of PLC
Type: functional, cell-based, COS-7

EC50 (cos-7) | Structure (SMILES) | EC50
 | O=C(O)[C@@H]1O[C@@H](OP(=O)(O)OP(=O)(O)OC[C@H]2O[C@@H](n3ccc(=O)[nH]c3=O)[C@H](O)[C@@H]2O)[C@@H](O)[C@H](O)[C@H]1O | 0.37 µM
4.38 µM | CC(=O)N[C@@H]1[C@H](OP(=O)(O)OP(=O)(O)OC[C@H]2O[C@@H](n3ccc(=O)[nH]c3=O)[C@H](O)[C@@H]2O)O[C@@H](CO)[C@H](O)[C@H]1O | 
